Experimental data: the supplement of paper PMC10307832

Legend:
Assay in all cases: relative viability (nuclei count vs DMSO), 5 days (fraction); higher = more cells survive
[1] = compound: COc1cc2ncn(-c3cc(OCc4ccccc4C(F)(F)F)c(C(N)=O)s3)c2cc1OC + CC(C)C[C@H](NC(=O)[C@H](Cc1ccccc1)NC(=O)c1cnccn1)B(O)O [Bortezomib] (partner 0.002 µM)
Procedure, shortened: (§1)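 One day after seeding in 1536-well plates, lung cancer cell lines were dosed by pin tool. Dosing was either single-drug or a fixed anchor-drug dose plus five library-drug doses (not always all listed) in √10 steps. After 5 days, nuclei were stained in one fix-and-stain step and counted on 4× images, and relative viability is the nuclei count of treated wells over that of vehicle wells, given as the median of duplicate plates.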

[2] = compound: COc1cc2ncn(-c3cc(OCc4ccccc4C(F)(F)F)c(C(N)=O)s3)c2cc1OC + Cc1cc(Nc2cc(N3CCN(C)CC3)nc(Sc3ccc(NC(=O)C4CC4)cc3)n2)n[nH]1 [Tozasertib] (partner 0.1 µM)
Procedure, shortened: as §1

[3] = compound: COc1cc2ncn(-c3cc(OCc4ccccc4C(F)(F)F)c(C(N)=O)s3)c2cc1OC + NC(=O)Nc1cc(-c2cccc(F)c2)sc1C(=O)N[C@H]1CCCNC1 [AZD7762] (partner 0.2 µM)
Procedure, shortened: as §1

[4] = compound: COc1cc2ncn(-c3cc(OCc4ccccc4C(F)(F)F)c(C(N)=O)s3)c2cc1OC + Nc1ncn([C@H]2C[C@H](O)[C@@H](CO)O2)c(=O)n1 [Decitabine] (partner 2 µM)
Procedure, shortened: as §1

Row | Cell Line | relative viability ([1]; first compound 0.05 µM) | relative viability ([1]; first compound 0.1581 µM) | relative viability ([1]; first compound 0.5 µM) | relative viability ([1]; first compound 1.581 µM) | relative viability ([1]; first compound 5 µM) | relative viability ([2]; first compound 0.05 µM) | relative viability ([2]; first compound 0.1581 µM) | relative viability ([2]; first compound 0.5 µM) | relative viability ([2]; first compound 1.581 µM) | relative viability ([2]; first compound 5 µM) | relative viability ([3]; first compound 0.05 µM) | relative viability ([3]; first compound 0.1581 µM) | relative viability ([3]; first compound 0.5 µM) | relative viability ([3]; first compound 1.581 µM) | relative viability ([3]; first compound 5 µM) | relative viability ([4]; first compound 0.05 µM) | relative viability ([4]; first compound 0.1581 µM) | relative viability ([4]; first compound 0.5 µM) | relative viability ([4]; first compound 1.581 µM) | relative viability ([4]; first compound 5 µM)
1 | HCC-366 | 1.12 | 1.04 | 0.646 | 0.018 | 0.0097 | 0.101 | 0.12 | 0.0568 | 0.0457 | 0.046 | 0.51 | 0.431 | 0.385 | 0.0175 | 0.0105 | 0.255 | 0.372 | 0.326 | 0.0359 | 0.0203
2 | HOP-62 | 0.977 | 1.2 | 0.507 | 0.178 | 0.124 | 0.361 | 0.334 | 0.241 | 0.175 | 0.201 | 0.523 | 0.714 | 0.316 | 0.118 | 0.0755 | 0.227 | 0.266 | 0.237 | 0.186 | 0.141
3 | LU99A | 1.14 | 1.08 | 0.898 | 0.206 | 0.201 | 0.224 | 0.246 | 0.247 | 0.241 | 0.246 | 0.306 | 0.385 | 0.226 | 0.132 | 0.0907 | 0.767 | 0.825 | 0.604 | 0.194 | 0.191
4 | NCI-H650 | 0.89 | 0.78 | 0.512 | 0.163 | 0.214 | 0.66 | 0.671 | 0.35 | 0.173 | 0.237 | 1.21 | 1.01 | 0.92 | 0.561 | 0.581 | 0.329 | 0.309 | 0.261 | 0.175 | 0.236
5 | A-427 | 1.05 | 1.05 | 0.752 | 0.258 | 0.251 | 0.195 | 0.188 | 0.176 | 0.162 | 0.142 | 0.793 | 0.68 | 0.682 | 0.231 | 0.153 | 0.619 | 0.6 | 0.498 | 0.399 | 0.205
6 | NCI-H441 | 0.565 | 0.463 | 0.273 | 0.154 | 0.176 | 0.71 | 0.481 | 0.232 | 0.236 | 0.336 | 1.13 | 0.73 | 0.437 | 0.198 | 0.171 | 0.229 | 0.243 | 0.18 | 0.137 | 0.164
7 | NCI-H2126 | 1.16 | 1.16 | 1.03 | 0.398 | 0.314 | 0.756 | 0.908 | 0.521 | 0.218 | 0.245 | 1.05 | 1.03 | 0.881 | 0.446 | 0.258 | 0.571 | 0.605 | 0.556 | 0.261 | 0.227
8 | HCC-44 | 0.949 | 0.874 | 0.714 | 0.127 | 0.107 | 0.983 | 0.903 | 0.242 | 0.346 | 0.199 | 1.03 | 1.04 | 0.991 | 0.549 | 0.375 | 0.987 | 0.984 | 0.906 | 0.433 | 0.258
9 | NCI-H460 | 1.08 | 0.805 | 0.487 | 0.0103 | 0.0108 | 0.497 | 0.294 | 0.0449 | 0.0359 | 0.0337 | 0.63 | 0.654 | 0.554 | 0.0553 | 0.0434 | 0.495 | 0.15 | 0.257 | 0.0216 | 0.0165
10 | NCI-H322M | 1.16 | 1.45 | 1.21 | 0.878 | 0.45 | 0.492 | 0.475 | 0.511 | 0.547 | 0.495 | 0.593 | 0.722 | 0.498 | 0.451 | 0.413 | 0.676 | 0.73 | 0.581 | 0.446 | 0.415
11 | EKVX | 1.1 | 0.773 | 0.991 | 0.195 | 0.487 | 0.371 | 0.408 | 0.311 | – | 0.229 | 0.841 | 0.48 | 0.655 | 0.416 | 0.33 | 0.324 | 0.381 | 0.273 | 0.175 | 0.204
12 | NCI-H1734 | 1.01 | 0.884 | 0.59 | 0.234 | 0.143 | 0.272 | 0.245 | 0.226 | 0.224 | 0.17 | 0.588 | 0.608 | 0.511 | 0.18 | 0.134 | 0.382 | 0.588 | 0.469 | 0.214 | 0.157
13 | ABC-1 | 0.304 | 0.294 | 0.281 | 0.242 | 0.233 | 0.219 | 0.223 | 0.155 | 0.251 | 0.255 | 0.782 | 0.487 | 0.741 | 0.631 | 1.01 | 1.21 | 1.18 | 0.761 | 0.513 | 0.357
14 | EPLC-272H | 1.05 | 0.82 | 0.567 | 0.0851 | 0.135 | – | 0.306 | 0.169 | 0.148 | 0.147 | 0.191 | 0.334 | 0.247 | 0.107 | 0.13 | 0.356 | 0.362 | 0.168 | 0.113 | 0.133
15 | NCI-H596 | – | 1.11 | 0.828 | 0.638 | 0.312 | 0.867 | 0.843 | 0.705 | 0.383 | 0.359 | 1.1 | 1.14 | 0.943 | 0.664 | 0.413 | 1.6 | 1.13 | 0.935 | 0.817 | 0.425
16 | NCI-H1993 | 1.09 | 1.13 | 0.874 | 0.618 | 0.516 | 0.581 | 0.613 | 0.566 | 0.637 | 0.661 | 0.921 | 0.814 | 0.53 | 0.418 | 0.381 | 0.448 | 0.631 | 0.506 | 0.364 | 0.413
17 | NCI-H647 | 1.2 | 0.814 | 0.324 | 0.0759 | 0.0904 | 0.0011 | 0.324 | 0.218 | 0.125 | 0.104 | 0.356 | 0.491 | 0.248 | 0.0314 | 0.026 | 0.381 | 0.275 | 0.168 | 0.131 | 0.107
18 | HCC-827 | 1.06 | 0.98 | 1.02 | 0.776 | 0.508 | 0.411 | 0.397 | 0.37 | 0.344 | 0.313 | 0.229 | 0.246 | 0.185 | 0.201 | 0.161 | 0.344 | 0.346 | 0.328 | 0.234 | 0.28
19 | ChaGo-K-1 | 0.98 | 0.727 | 1.03 | 0.427 | 0.272 | 0.212 | 0.219 | 0.197 | 0.251 | 0.184 | 0.896 | 0.853 | 0.882 | 0.237 | 0.16 | 0.567 | 0.504 | 0.43 | 0.255 | 0.162
20 | EMC-BAC-2 | 1.19 | 1.08 | 0.925 | 0.416 | 0.278 | 0.332 | 0.314 | 0.223 | 0.215 | 0.245 | 1.18 | 1.21 | 1.08 | 0.357 | 0.223 | 1.12 | 1.05 | 0.963 | 0.504 | 0.253
21 | NCI-H23 | 1.14 | 0.847 | 0.648 | 0.132 | 0.117 | 0.349 | 0.269 | 0.218 | 0.166 | 0.13 | 0.196 | 0.261 | 0.199 | 0.0923 | 0.0935 | 0.296 | 0.281 | 0.176 | 0.191 | 0.151
22 | LC-2-ad | 0.866 | 0.516 | 0.399 | 0.108 | 0.106 | 0.439 | 0.512 | 0.273 | 0.359 | 0.367 | 0.769 | 0.896 | 0.576 | 0.14 | 0.129 | 0.824 | 0.761 | 0.63 | 0.203 | 0.2
23 | HCC-15 | 0.99 | 0.89 | 0.785 | 0.142 | 0.114 | 0.509 | 0.394 | 0.138 | 0.151 | 0.139 | 1.18 | 1.05 | 1.03 | 0.21 | 0.154 | 0.592 | 0.581 | 0.248 | 0.176 | 0.119
24 | NCI-H2405 | 1.02 | 0.492 | 0.835 | 0.401 | 0.557 | 0.88 | 0.803 | 0.368 | 0.325 | 0.327 | 0.793 | 0.703 | 0.446 | 0.262 | 0.263 | 0.754 | 0.704 | 0.506 | 0.373 | 0.324
25 | LXF-289 | 0.84 | 0.781 | 0.649 | 0.0959 | 0.0616 | 0.192 | 0.197 | 0.145 | 0.129 | 0.107 | 1.1 | 1 | 0.983 | 0.134 | 0.0617 | 0.434 | 0.363 | 0.274 | 0.129 | 0.108
26 | NCI-H1755 | 0.958 | 0.965 | 0.843 | 0.355 | 0.278 | 0.517 | 0.553 | 0.518 | 0.376 | 0.285 | 0.431 | 0.525 | 0.397 | 0.373 | 0.259 | 0.702 | 0.682 | 0.716 | 0.57 | 0.397
27 | NCI-H1437 | 0.526 | 0.38 | 0.145 | 0.148 | 0.107 | 0.457 | 0.456 | 0.377 | 0.354 | 0.251 | 1.24 | 1.09 | 0.6 | 0.198 | 0.154 | 0.564 | 0.561 | 0.34 | 0.266 | 0.272
